Results reported in patent publication US8524691B2, “Phosphonated rifamycins and uses thereof for the prevention and treatment of bone and joint infections” (The Medicines Company, priority 2008, dated 2013).
Converted amounts (≈) assume the structure as drawn. Read-outs that look alike come from different tables or passages of the source.

Key:
[1] = tested on: S. aureus ATCC 13709^A, Novobiocin and Rifampicin resistant variant; assay: Antibacterial susceptibility (MIC), NCCLS broth microdilution; type: cell-based
How it was run: (§1)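 Two-fold serial dilutions in DMSO were tested in cation-adjusted Mueller Hinton broth, following NCCLS M26-A, at 5×10^5 c.f.u./mL with 1.25% DMSO final, in duplicate. Plates were incubated at 37 °C for 18 h. MIC was the lowest concentration inhibiting visible growth.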

[2] = tested on: S. aureus ATCC 29213; assay: as above; type: cell-based; details: for Minimum inhibitory concentration, S. aureus ATCC 29213: CAMHB, 37° C., 18 h
How it was run: as §1

[3] = tested on: S. aureus ATCC 13709; assay: microbe, parasite or virus in culture; type: cell-based; details: for Minimum inhibitory concentration, S. aureus ATCC 13709: CAMHB, 37° C., 18 h; for Antibacterial activity (in words, from Table 1): S. aureus MIC
How it was run: as §1

[4] = tested on: S. aureus ATCC 13709; assay: microbe, parasite or virus in culture; type: cell-based; details: for Serum dependence of antibacterial activity (in words): MIC with versus without serum; for MIC: Staphylococcus aureus, ATCC13709, 18 h
[5] = type: in vitro ADME; details: for % Conversion (prodrug converted to parent drug after binding to bone): 24 h incubation, 37° C.
Experimental: Amounts of parent drug “regenerated” from the phosphonated prodrug were measured as follows. Washed bone powder-bound prodrugs from the above experiment were resuspended in 400 μL PBS+2% DMSO or in 400 μL 50% (v/v in PBS+2% DMSO) human or rat serum. The suspension was incubated overnight at 37° C., centrifuged at 13,000 rpm for 2 min and the supernatant was recovered. The amount of regenerated parent drug in the supernatant was determined by measurements using the microbiological assay that was previously described for the prodrugs themselves. The amount of prodrug was deduced from standard curves of known amounts of parent drug that were used as reference for each experiment. The amount of regenerated drug assessed by this bioassay was corroborated by MIC determination. The percentage of drug regenerated in PBS or serum after the overnight incubation (Table 2) was deduced from the difference between the amount of bound prodrug and the amount of regenerated drug (not shown).

[6] = tested on: Novobiocin resistant mutant strain of S. aureus ATCC 13709; assay: Prophylactic efficacy in rat model of S. aureus bone infection; type: in vivo; details: for Measured bacterial titer, test compound: 20 mg/kg parent drug equivalent, tibia 24 h postinfection; for Prophylactic activity in rat bone infection model (in words): 20 mg/kg, 1 day or 5 days prior to infection
Experimental: To determine the in vivo activity of bisphosphonated prodrugs of Rifamycin derived antibacterials in comparison to their non-bisphosphonated parents, compounds 18, 19, 48a, 59, 66, 89, 95, 102, 110, 142b and 164 and their parent drug rifabutin were used as prophylactic therapeutics in an animal model of infection. Specifically, a spontaneous Novobiocin resistant mutant strain of S. aureus ATCC 13709 (a clinical osteomyelitis isolate), was grown overnight at 37° C. in brain heart infusion broth (BHIB). After 16 h of growth, cells were subcultured into fresh BHIB and incubated for 4 to 5 h at 37° C. The cells were washed twice with phosphate-buffered saline (PBS) and resuspended in BHIB supplemented with 10% (vol./vol.) fetal bovine serum at a density of approximately 10^10 colony forming units (CFU)/ml (based upon turbidimetry). The suspension was aliquoted and a portion was used to check the CFU count. The culture was stored frozen (−80° C.) and was used without subculture. For use as an inoculum the culture was thawed, diluted in PBS and kept in an ice bath until it was used.
Animals were infected as described by O'Reilly et al. (Antimicrobial Agents and Chemotherapy (1992), 36(12): 2693-97) to generate the bone infection. Female CD rats (age, 57 to 70 days; n=5/group; Charles River, St-Constant, Canada) were anaesthetized by isofluorane before and during the surgery. Following complete induction of anesthesia, the rat was placed ventral side up and hair was shaved from the surgical site. The skin over the leg was cleaned and disinfected (proviodine-ethanol 70%). A longitudinal incision below the knee joint was made in the sagital plane. The incision was made over the bone below the “knee joint” (tibia head or condyle) but not completely extending to the ankle. A high speed drill fitted with a 2 mm bulb bit was used to drill a hole into the medullar cavity of the tibia. Rats were injected intra-tibially with 0.05 ml 5% sodium morrhuate (sclerosing agent) and then with 0.05 ml of S. aureus suspension (ca. 2×10^7 CFU/rat). The hole was sealed by applying a small amount of dry dental cement which immediately absorbs fluids and adheres to the site. The wound was closed using 3 metal skin clips. Moxifloxacin (as a positive control) was injected once at 10 mg/kg intravenously 1 h postinfection in saline, while the Rifabutin derived prodrugs (prepared in 0.9% saline) were injected at the dose indicated in Table 3 as a single intravenous bolus at different time points prior to the infection.
Infected rats were sacrificed by CO2 asphyxiation 24 h postinfection to monitor the bacterial CFU count. Infected tibiae were removed, dissected free of soft tissue, and weighed. The bones were ground, 50 mg of charcoal were added and the powder was resuspended in 5 ml 0.9% NaCl, serially diluted and processed for quantitative cultures. Treatment efficacy was measured in terms of Log viable bacteria (Log CFU per gram of bone). […] The limit of detection is 2 Log CFU. Statistical comparisons of viable bacterial counts for the different treated and untreated groups were performed with the Dunnett's multiple-comparison test. Differences were considered significant when the P value was <0.05 when comparing treated infected animals to the untreated infected ones. The doses used, the amount of time separating the treatment from the time of infection and the treatment outcomes are shown in Table 3.

[7] = single intravenous bolus 1 day prior to infection
[8] = single intravenous bolus 5 days prior to infection

Row | Compound | Minimum inhibitory concentration, S. aureus ATCC 13709^A [1] | Minimum inhibitory concentration, S. aureus ATCC 29213 [2] | Minimum inhibitory concentration, S. aureus ATCC 13709 [3] | Antibacterial activity (in words, from Table 1) [3] | Minimum inhibitory concentration, ATCC 13709 + 50% Human Serum [4] | Minimum inhibitory concentration, ATCC 13709 + 50% Mouse Serum [4] | Minimum inhibitory concentration, ATCC 13709 + 50% Rat Serum [4] | Release of parent rifabutin from bone powder-bound prodrug (in words) [5] | % Conversion (prodrug converted to parent drug after binding to bone) ([5]; 50% Heat Inactivated Rat Serum) | % Conversion (prodrug converted to parent drug after binding to bone) ([5]; 50% Rat Serum) | % Conversion (prodrug converted to parent drug after binding to bone) ([5]; PBS) | Measured bacterial titer, test compound [6, 7] | Measured bacterial titer, test compound [6, 8] | Prophylactic activity in rat bone infection model (in words) [6] | Serum dependence of antibacterial activity (in words) [4] | further results
1 | CO[C@H]1/C=C/O[C@@]2(C)Oc3c(C)c(O)c4c(c3C2=O)C2=NC3(CCN(CC(C)C)CC3)N(C(=O)OCc3cc(C)c(OC(=O)CCC(P(=O)(O)O)P(=O)(O)O)c(C)c3)C2=C(NC(=O)/C(C)=C\C=C\[C@H](C)[C@H](O)[C@@H](C)[C@@H](O)[C@@H](C)[C@H](OC(C)=O)[C@@H]1C)C4=O.N.N [Compound 19] | >128 µg/mL | 0.25 µg/mL | 0.25 µg/mL | very low MICs whether in the absence or in the presence of serum | 0.125 µg/mL | 0.0625 µg/mL | 0.0156 µg/mL | release significant amounts of the parent rifabutin once bound to bone powder, regardless of the presence of serum | 0.14% | 0.14% | 0.14% | 2.55 ± 0.69 Log CFU/g of bone | 3.69 ± 1.45 Log CFU/g of bone | active at 1 day and display activity similar to rifabutin at 5 days |  | 
2 | CCC(=O)OCOC(=O)N[C@@H](Cc1ccc(OCCCC(P(=O)(O)O)P(=O)(O)O)cc1)C(=O)N(C)CC(=O)O[C@@H]1[C@@H](C)[C@@H](O)[C@@H](C)[C@H](OC(C)=O)[C@H](C)[C@@H](OC)/C=C/O[C@@]2(C)Oc3c(C)c(O)c4c(c3C2=O)C2=NC3(CCN(CC(C)C)CC3)NC2=C(NC(=O)/C(C)=C\C=C\[C@@H]1C)C4=O.N.N [Compound 89] | >128 µg/mL | 4 µg/mL | 4 µg/mL |  | 16 µg/mL | 0.0625 µg/mL | 0.0156 µg/mL | regeneration is clearly accelerated by the presence of serum | 0.16 ± 0.04% | 0.18% | 0.02% | 2.05 ± 0.07 Log CFU/g of bone | 3.45 ± 1.36 Log CFU/g of bone | active at 1 day and display activity similar to rifabutin at 5 days | significant increase in antibacterial activity in serum | 
3 | CCC(=O)OCOC(=O)N[C@@H](CCCCNC(=O)CCC(P(=O)(O)O)P(=O)(O)O)C(=O)N(C)CC(=O)O[C@@H]1[C@@H](C)[C@@H](O)[C@@H](C)[C@H](OC(C)=O)[C@H](C)[C@@H](OC)/C=C/O[C@@]2(C)Oc3c(C)c(O)c4c(c3C2=O)C2=NC3(CCN(CC(C)C)CC3)NC2=C(NC(=O)/C(C)=C\C=C\[C@@H]1C)C4=O.N.N [Compound 95] | >128 µg/mL | 4 µg/mL | 4 µg/mL |  | 16 µg/mL | 0.0625 µg/mL | 0.0156 µg/mL | regeneration is clearly accelerated by the presence of serum | 0.13% | 0.14 ± 0.06% | 0.02% | 2.3 ± 0.57 Log CFU/g of bone | 3.75 ± 0.54 Log CFU/g of bone | active at 1 day and display activity similar to rifabutin at 5 days | significant increase in antibacterial activity in serum | 
4 | CCC(=O)OCOC(=O)N[C@@H](CCC(=O)NC(P(=O)(O)O)P(=O)(O)O)C(=O)N(C)CC(=O)O[C@@H]1[C@@H](C)[C@@H](O)[C@@H](C)[C@H](OC(C)=O)[C@H](C)[C@@H](OC)/C=C/O[C@@]2(C)Oc3c(C)c(O)c4c(c3C2=O)C2=NC3(CCN(CC(C)C)CC3)NC2=C(NC(=O)/C(C)=C\C=C\[C@@H]1C)C4=O [Compound 102] |  |  |  |  |  |  |  |  |  |  |  | 2.89 ± 1.13 Log CFU/g of bone | 5.38 ± 0.83 Log CFU/g of bone | active at 1 day and display activity similar to rifabutin at 5 days | significant increase in antibacterial activity in serum | MIC ([1]; Staphylococcus aureus, ATCC13709, read-out: Minimum inhibitory concentration, S. aureus ATCC 13709^A): > 128 µg/mL; MIC ([2]; Staphylococcus aureus, ATCC29213, 18 h, read-out: Minimum inhibitory concentration, S. aureus ATCC 29213): 2 µg/mL (≈ 1.48 µM); MIC ([3]; Staphylococcus aureus, ATCC13709, 18 h, read-out: Minimum inhibitory concentration, S. aureus ATCC 13709): 4 µg/mL (≈ 2.96 µM); MIC ([4]; read-out: Minimum inhibitory concentration, ATCC 13709 + 50% Human Serum): 16 µg/mL; MIC ([4]; read-out: Minimum inhibitory concentration, ATCC 13709 + 50% Mouse Serum): 0.0625 µg/mL; MIC ([4]; read-out: Minimum inhibitory concentration, ATCC 13709 + 50% Rat Serum): 0.0156 µg/mL; Release of parent rifabutin from bone powder-bound prodrug (in words) ([5]; PBS versus serum): regeneration is clearly accelerated by the presence of serum
5 | CCN(CC)CC.CO[C@H]1/C=C/O[C@@]2(C)Oc3c(C)c(O)c4c(c3C2=O)C2=NC3(CCN(CC(C)C)CC3)NC2=C(NC(=O)/C(C)=C\C=C\[C@H](C)[C@H](OC(=O)CN(C)C(=O)Nc2ccc(CC(P(=O)(O)O)P(=O)(O)O)cc2)[C@@H](C)[C@@H](O)[C@@H](C)[C@H](OC(C)=O)[C@@H]1C)C4=O [Compound 142b] | >128 µg/mL | 0.0625 µg/mL | 0.125 µg/mL | very low MICs whether in the absence or in the presence of serum | 0.5 µg/mL | 0.0625 µg/mL | 0.008 µg/mL | release significant amounts of the parent rifabutin once bound to bone powder, regardless of the presence of serum | 0.24 ± 0.04% | 0.22 ± 0.06% | 0.37 ± 0.08% | 2.14 ± 0.08 Log CFU/g of bone | 4.79 ± 1.40 Log CFU/g of bone |  |  | 
